From patent US6583150B1, “Pharmaceutical composition based on polyaromatic compounds” (Laboratorie L. Lafon, priority 1999, dated 2003)

Key:
[1] = system: 12 human tumor lines: U-87MG, U-373MG, SW 1088, T24, J82, HCT-15, LoVo, MCF7, T-47D, A549, A-427 and PC-3; assay: MTT cytotoxicity test, panel of the 12 human tumor lines; assay type: cell-based; conditions: Homo sapiens, read-out: average IC50
Experimental: (§1) The influence of the compounds of formulae I and II on neoplastic cells was evaluated using the MTT calorimetric test. The principle of the MTT test is based on the mitochondrial reduction by metabolically active live cells of the yellow-colored product MTT (3-(4,5-dimethylthiazol-2-yl)-2,5-diphenyltetrazolium bromide) to a blue-colored product, formazan. The amount of formazan thus obtained is directly proportional to the amount of live cells present in the culture well(s). This amount of formazan is measured by spectrophotometry.
(§2) The cell lines are maintained in monolayer culture at 37° C. in stoppered culture dishes containing 25 MM HEPES MEM (Minimum Essential Medium) base medium. This medium, which is suitable for growing a range of varied diploid or primary mammalian cells, is then supplemented: […]
(§3) with a an amount of 5% FCS (Fetal Calf Serum) decomplemented at 56° C. for 1 hour, with 0.6 mg/mL of L-glutamine, with 200 IU/mL of penicillin, with […] of streptomycin, with 0.1 mg/mL of gentamicin.
The 12 human cancer cell lines used were obtained from the American Type Culture Collection (ATCC, Rockville, Md., USA). These 12 cell lines are:
U-373MG (code ATCC: HTB-17) and U-87MG (code ATCC: HTB-14) which are two glioblastomas, SW1088 (code ATCC: HTB-12) which is an astrocytoma, A549 (code ATCC: CCL-185) and A-427 (code ATCC: HTB-53) which are two non-small-cell lung cancers, HCT-15 (code ATCC: CCL-225) and LoVo (code ATCC: CCL-229) which are two colorectal cancers, T-47D (code ATCC: HTB-133) and MCF7 (code ATCC: HTB-22) which are two breast cancers, J82 (code ATCC: HTB-1) and T24 (code ATCC: HTB-4) which are two bladder cancers, PC-3 (code ATCC: CRL-1435) which is a prostate cancer.
Experimentally: 100 μl of a cell suspension containing 200 000 to 50 000 (depending on the cell type used) cells/mL of culture medium are inoculated in flat-bottomed 96-well multi-well plates and are incubated at 37° C. under an atmosphere comprising 5% CO2 and 70% humidity. After incubating for 24 hours, the culture medium is replaced with 100 μl of fresh medium containing either the various test compounds at concentrations ranging from 10^−5 to 10^−10 M or the solvent used to dissolve the test products (control condition). After incubating for 72 hours under the above conditions, the culture medium is replaced with 100 μl of a yellowish solution of MTT dissolved at a rate of 1 mg/mL in RPMI 1640. The microplates are reincubated for 3 hours at 37° C. and then centrifuged for 10 minutes at 400×g. The yellowish solution of MTT is removed and the blue formazan crystals formed at the cellular level are dissolved in 100 μl of DMSO. The microplates are then agitated for 5 minutes. The intensity of the resulting blue coloration, and thus of the conversion of the yellow MTT product into blue formazan by the cells that are still alive at the end of the experiment is quantified by spectrophotometry using a DYNATECH IMMUNOASSAY SYSTEM machine at wavelengths of 570 nm and 630 nm corresponding, respectively, to the maximum absorption wavelengths of formazan and to the background noise. Software built into the spectrophotometer calculates the average optical density values and also the standard deviation (Std. Dev.) and standard error of mean (SEM) values.
The inhibitory activity on the cell growth of the compounds of formula I and of formula II on the different tumor cell lines was compared with that of the natural product meridine (CRL 8348). All of the compounds of formula I and of formula II show significant inhibitory activity on the cell proliferation of the 12 human tumor lines: U-87MG, U-373MG, SW 1088, T24, J82, HCT-15, LoVo, MCF7, T-47D, A549, A-427 and PC-3 with an inhibitory concentration 50 (IC50) which is between 10^−6 M and 10^−10M, depending on the compounds and the tumor lines tested. By way of example, the values of the concentrations flanking the IC50 which are obtained on the various cell lines are given in table II: […]

[2] = Determination of the maximum tolerated dose (MTD); assay type: in vivo; conditions: mouse, in vivo, ip; single intraperitoneal administration, survival over 14 days, B6D2F1/Jico mice
Experimental: The evaluation of the maximum tolerated dose was carried out on 4- to 6-week-old B6D2F1/Jico mice. […] The value of the MTD (expressed in mg/kg) is determined from observing the survival rate of the animals over a period of 14 days after a single administration of the product under consideration. The change in the weight of the animals is also monitored over this period.

[3] = system: T24; assay: MTT cytotoxicity test, T24; assay type: cell-based; conditions: Homo sapiens, T-24, T24 bladder cancer, 72 hours, read-out: concentrations flanking the IC50
Experimental: as §1, §2, §3
The 12 human cancer cell lines used were obtained from the American Type Culture Collection (ATCC, Rockville, Md., USA). These 12 cell lines are: […]

O=C1c2ncccc2-c2nc3ccccc3c3ccnc1c23 [CRL 8299, Benzo[b]pyrido[4,3,2-de][1,7]phenanthroline-8-one]
IC50 [1]: 2.2 nM
MTD at 14 days [2]: 80 mg/kg
IC50 [3]: < 0.1 nM
